Measurements published in patent US20240358678A1, “METHODS AND COMPOSITIONS FOR ENHANCING CHEMOTHERAPEUTIC DRUG UPTAKE INTO BRAIN TUMORS” (Brown University, priority 2023, published 2024).
Entries after “also recorded” stand apart in the source; their conditions may differ.

Experiments:
[1] = test system: HCMEC/D3 cells; assay: Secretome (Luminex cytokine) quantification; type: cell-based, human; details: BIA 48 hours
Method: Secretome quantification: For cytokine analysis of brain endothelial cells after BIA exposure, HCMEC/D3 cells were plated at a density of 500,000 cells/well in a 6-well plate. Cells were treated with indicated doses of BIA or DMSO for 48 hours. Then, 1 mL of media was collected and processed for cytokine quantification in a Luminex platform (Thermo Fischer Scientific) following the provider's instructions.

[2] = test system: G34 GBM cells; assay: Real-time PCR in G34-PCDH neurosphere GBM cells; type: cell-based, human; details: BIA 2 μM, 24 hours
Method: Real-time PCR: Total RNA from GBM and HCMEC/D3 cells was obtained and processed as indicated above. For cDNA generation, we used 1 μg of RNA and processed with the iScript™ cDNA synthesis kit (BioRad), following the protocol indicated by the provider. All primers were designed using NCBI Primer-Blast tool. Detailed information on primer sequences can be found in FIG. 25 (Supplementary Table 3). Gene expression levels were quantified using PowerUp SYBR Green Master Mix (Applied Biosciences) on QuantStudio 6 Pro System (Applied Biosciences), normalized by housekeeping gene GAPDH expression and represented as relative expression using comparative ΔΔCT method.

[3] = test system: G30 tumor-bearing mice; assay: Sodium fluorescein (NaF) BTB permeability study; type: in vivo
Method: In vivo studies: For intra-cranial tumor implantation, GBM neuro-spheres were grown to 70% confluency before dissociated into single cell on the day of surgery. 50,000 cells were resuspended in 3 μl of sterile PBS and injected intracranially into the striatum (2 mm right hemisphere, 1 mm frontal, 3 mm depth from bregma) of mice under anesthesia and stereo-tactically fixed. Tumors were left to grow for approximately 2-3 weeks, depending the cell line. Animals were randomized to treatment groups. BIA injections consisted of 20 mg/kg (i.p.), except if indicated otherwise. PPRX-1701 was administered at 20 mg/kg (i.v.) via lateral tail-vein. Cisplatin injections were performed at 5 mg/kg (maximum tolerated dose, i.p.). […]
Sodium fluorescein (NaF) BTB permeability studies: NaF was administered to G30 tumor-bearing mice intravenously (i.v.) via lateral tail vein at 20 mg/kg. Then, 30 minutes after administration when peak fluorescence is reached in the brain, mice were euthanized for immediate brain tissue harvest. […] Quantification of pixel intensities from acquired images was performed in ImageJ. Tissue samples were then homogenized in 1 mL of 60% trichloroacetic acid in PBS and measured at 488 nm in a Molecular Devices SpectraMax M2 plate reader.

[4] = test system: HCMEC/D3 cells; assay: Platinum levels in brain endothelial cells treated with BIA and cisplatin; type: cell-based, human; details: 2 μM BIA and cisplatin simultaneously
[5] = test system: murine GBM models; details: cited from earlier work
[6] = test system: hCMEC/D3 brain microvascular endothelial cells; assay: ECIS electrical impedance of endothelial monolayers (Example 1); type: cell-based, human; details: BiA 1 μM, p<0.05
Method: Electrical Impedance Measurements: Human Brain microvascular endothelial cell (purchased from Sciencell) monolayers were plated on special culture chambers on top of opposing circular gold electrodes (Applied Biophysics Inc). Impedance was automatically recorded during cell monolayer formation.
The in vitro effects of indirubin on endothelial monolayer permeability were also assess using Electric Cell-substrate Impedance Sensing (ECIS®) to provide a real-time, label-free, impedance-based study of cell behaviors in tissue culture. BiA (1 μM) was added to endothelial monolayers in an ECIS impedance measurement culture system (Applied Physics).

[7] = test system: HCMEC/D3 cells; assay: Human phospho-kinase array of HCMEC/D3 cells; type: cell-based
Method: Phospho-kinase array: HCMEC/D3 cells were plated at a density of 1 million cells and treated with either 1 μM BIA or vehicle DMSO for 24 hr. Cell lysates were collected with manufacturer provided Lysis Buffer 6 supplemented with 10 μg/mL Aprotinin (Tocris), 10 μg/mL Leupeptin hemisulfate (Tocris) and 10 μg/mL Pepstatin A (Tocris) for protein preservation. 50 μg of lysate from each sample were loaded into each membrane. All experiment procedures were performed using the Proteome Profiler Human Phospho-Kinase Array Kit (R&D Systems) following manufacturer's protocol.

[8] = test system: patient-derived GBM neuro-spheres; assay: GBM neuro-sphere cell viability assay (Cell-Titer Glo 3D), BIA and cisplatin; type: cell-based, human; details: BIA 1 μM, 5 days
Method: Cell viability assay: Cells were plated at a density of 1500 cells/well in black-well clear bottom 96-well plates and left growing in culture conditions overnight. Next day, cells were treated with titrating doses of the indicated compounds. For BIA only cytotoxicity studies, cells were incubated with BIA for 96 hours. For BIA and cisplatin combinatorial studies, cells were incubated with BIA and cisplatin, and corresponding controls, for 5 days. Next, we used the Cell-Titer Glo 3D (Promega) following provider's guidelines and quantified for luminescence signal using a Molecular Devices SpectraMax M2 plate reader. Conditions were repeated in triplicates.

[9] = test system: HCMEC/D3 cells; assay: Cell cycle analysis via flow cytometry of HCMEC/D3; type: cell-based, human; details: BIA 0.5 μM or 1 μM
Method: Flow cytometry for cell cycle, DNA damage and apoptosis assays: For cell cycle analysis, 100,000 HCMEC/D3 cells were plated in 6-well plates and treated with indicated concentrations of BIA or control for 48 hours. Then, cells were washed twice with PBS and fixed/permeabilized with 5 mL of cold 70% ethanol added dropped-wise while vortexing at low speed. Cells were stored for 1 day at −20 degrees Celsius, washed three times with PBS and treated with 20 μg/mL RNAse I (Thermo Fisher Scientific) and stained with anti-Ki-67 FITC-conjugated (1:1000) (BD Biosystems) and 1.5 μM propidium iodide (Thermo Fisher Scientific). Amer 30 minutes of incubation in the dark, cells were analyzed using a CytoFLEX system (Beckman Coulter). 50,000 events were counted, and data was analyzed using the CytoFLEX system software (Beckman Coulter).

Q: What does the source list for `CC(=O)ON=C1C(=C2C(=O)Nc3cc(Br)ccc32)Nc2ccccc21` [BIA, 6-bromoindirubin acetoxime]?
A: CCL2 secretion [1]: significant downregulation; cytokine secretion profile (TNF-α, IFNg, IL-17A, IL6, IL-1b, prolactin, CCL8, CCL4) [1]: pro-inflammatory secretion profile; CDH5 expression [2]: reduced the expression; WNT7B and S1PR3 expression [2]: diminishment; NaF fluorescent signal in healthy brain ([3]; after BIA administration): not in healthy brain; NaF fluorescent signal in the tumor ([3]; after BIA administration vs untreated controls): significant accumulation in the tumor; cellular drug (platinum) accumulation due to BIA addition [4]: did not observe any advantage in drug accumulation; tumor migration and growth (previously reported) ([5]; GBM in vitro and in vivo): halted tumor migration and growth in vitro and in vivo; angiogenesis of intra-cranial murine GBM models (previously reported) ([5]; mouse, in vivo): reduced angiogenesis; trans-endothelial electrical resistance / impedance [6]: significantly decrease trans-endothelial electrical resistance; also recorded: diminishes electrical impedance; activity of endothelial nitric oxide synthase (eNOS) and the p38a/CREB axis [7]: decreased activity; phosphorylation of MAPK family (p38a, JNK1, MSK1/2, ERK1/2), SRC family (SRC, YES, FGR) and transcription factors (CREB, STAT1, STAT2, STAT5a/b, c-JUN) ([7]; 1 μM BIA, 24 hours): decrease of activating phosphorylation; phosphorylation of STAT3 and p70 S6 kinase ([7]; 1 μM BIA, 24 hours): phosphorylation of STAT3 at S727 and Y705; cell viability, BIA single-treatment [8]: reduced the cell viability of cells mildly; cell cycle states [9]: slight decreased G1 and M states
